Results from PMC12641067 (Clinical Pharmacology and Therapeutics, 2025).
Like-named read-outs stand apart in the source and are kept apart here.

Assays:
[1] = Population PK model of rifampicin (plasma data); type: in vivo, human; conditions: population estimate (RSE%)
Procedure: Individual plasma and urine data of GCDCA‐S in healthy subjects were obtained from three clinical studies. Tatosian et al.[18] (study #1) consisted of two occasions: on both occasions, a microdose probe drug cocktail for multiple clinically relevant transporters was administered, with a single oral dose of 600 mg rifampicin co‐administered on the second occasion (n = 6; 3 males, 3 females). Willemin et al.[22] (study #2) was a two‐phase, cross‐over study with a 21‐day washout period between the two phases. […] Study #3 consists of unpublished data from the same study design as reported by Willemin et al. (n = 12; 12 males).[22]
Models were evaluated using visual predictive check (VPC) plots, goodness‐of‐fit (GOF) plots, parameter uncertainty, and changes in objective function. Model visualization and simulations were conducted in MATLAB 2024a (MathWorks, Natick, MA, USA) and Graph Pad Prism 10.2.2 (GraphPad software, La Jolla, CA, USA).
The structural model for rifampicin was based on our previous report,[33] and represents a one‐compartment model with zero‐order absorption and linear elimination.
The models for rifampicin, probenecid, and GCDCA‐S incorporated both inter‐individual variability for a number of model parameters (assuming log‐normal distribution) and residual unexplained variability (using a combination of proportional and additive error models).

[2] = system: OATP1B1; design: method as in ref 18 (a number printed in a supplementary file, which may have a reference list of its own: not looked up in the article's list); conditions: HEK293, read-out: In vitro OATP1B1 IC50, cited from earlier work
[3] = molecular target: T1, OATP1B3 (Homo sapiens, UniProt Q9NPD5); design: method as in ref 18 (a number printed in a supplementary file, which may have a reference list of its own: not looked up in the article's list); conditions: HEK293, read-out: In vitro OATP1B3 IC50, cited from earlier work
T1 sequence (Q9NPD5 1-702): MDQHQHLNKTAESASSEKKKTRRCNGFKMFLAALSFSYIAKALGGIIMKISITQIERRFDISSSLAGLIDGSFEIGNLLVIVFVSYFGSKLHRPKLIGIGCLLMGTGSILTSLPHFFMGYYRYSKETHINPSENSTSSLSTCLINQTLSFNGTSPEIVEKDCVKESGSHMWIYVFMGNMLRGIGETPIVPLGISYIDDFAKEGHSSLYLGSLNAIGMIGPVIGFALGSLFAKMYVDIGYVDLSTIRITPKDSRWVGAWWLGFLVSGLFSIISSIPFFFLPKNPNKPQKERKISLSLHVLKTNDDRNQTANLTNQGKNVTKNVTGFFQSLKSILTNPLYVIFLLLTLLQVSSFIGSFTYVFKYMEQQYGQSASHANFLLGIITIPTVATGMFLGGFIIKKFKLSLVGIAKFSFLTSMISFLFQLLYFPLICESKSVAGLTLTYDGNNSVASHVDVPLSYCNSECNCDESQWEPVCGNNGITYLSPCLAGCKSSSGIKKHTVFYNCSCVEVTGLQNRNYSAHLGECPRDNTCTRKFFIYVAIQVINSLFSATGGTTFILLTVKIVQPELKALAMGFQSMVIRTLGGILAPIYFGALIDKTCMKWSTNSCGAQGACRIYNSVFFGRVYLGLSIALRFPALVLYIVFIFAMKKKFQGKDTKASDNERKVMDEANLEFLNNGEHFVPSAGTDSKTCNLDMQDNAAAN

[4] = system: OATP1B; conditions: substrate CP-I, 600 mg, read-out: In vivo OATP1B Ki,u, cited from earlier work
[5] = system: OATP1B1; design: method as in ref 22 (a number printed in a supplementary file, which may have a reference list of its own: not looked up in the article's list); conditions: substrate CP-I, 150 – 600 mg, read-out: In vivo OATP1B Ki,u; cited from earlier work
[6] = molecular target: T1, OATP1B3; test: In vivo OATP1B3 inhibition estimated by POP-PK modeling of GCDCA-S data; design: hepatic OATP1B3 and renal OAT3 transporters; from tissue; host or cells: liver (hepatocytes) of healthy human subjects, in vivo; conditions: GCDCA-S as substrate, rifampicin 600 mg, population estimate (RSE%), read-out: K i,unbound,OATP1B3

In the case of `CO[C@H]1/C=C/O[C@@]2(C)Oc3c(C)c(O)c4c(O)c(c(/C=N/N5CCN(C)CC5)c(O)c4c3C2=O)NC(=O)/C(C)=C\C=C\[C@H](C)[C@H](O)[C@@H](C)[C@@H](O)[C@@H](C)[C@H](OC(C)=O)[C@@H]1C` [RIF, rifampicin], the clearance ([1]; both sexes, human, plasma, oral, 600 mg, read-out: CL RIF (converted)) is reported as 112 mL/min, the “Tk0 RIF” value ([1]; duration of zero-order absorption) is reported as 0.84 (41) h and the “V RIF” value [1] is reported as 35 (5) L. The “Tlag RIF” value ([1]; single oral dose 600 mg) was 0.56 (20) h, the IC50 ([2]; substrate CP-I) was 0.61 µM and the IC50 ([2]; substrate GCDCA-S) was 0.17 µM. The IC50 ([3]; substrate CP-I) was 0.57 µM, the IC50 ([3]; substrate GCDCA-S) was 0.28 µM and the Ki ([4]; ref 8) was 0.13 µM. The Ki ([4]; ref 19) was 0.02 µM, the Ki ([4]; ref 21) was 0.1 µM and the Ki ([4]; ref 23) was 0.038 µM. For the same molecule, the Ki ([4]; ref 24) was 0.053 µM, the Ki [5] was 0.14 µM and the Ki [6] was 0.009 µM.
